Literature values in patent publication US11414692B2, “Method and device for characterizing the inhibitory capacity of a molecule on a microorganism” (BIOMERIEUX, priority 2014, dated 2022).
In brackets after ≈: the same amount, converted by molar mass.

Tested on: E. coli ATCC 25922
Conditions: manual technique, incubation time 18 to 24 h

First: O=C(N[C@H](CO)[C@H](O)c1ccc([N+](=O)[O-])cc1)C(Cl)Cl [chloramphenicol]
Second: CCn1cc(C(=O)O)c(=O)c2ccc(C)nc21 [nalidixic acid]
The “MIC concentration recognized by the French government, or "regulatory" MIC” value of the first is 2-fold higher: 4 µg/mL (≈ 12.4 µM) for the first, 2 µg/mL (≈ 8.61 µM) for the second.

In the case of gentamicin, the “MIC concentration recognized by the French government, or "regulatory" MIC” value is given as 0.5 µg/mL.
